From US20160264593A1 (priority 2013, published 2016)

Experiment: in vivo
Set-up: species or system SD rats
Settings: rat, 1.4 mg/kg; for Kp: AUC(0-t) ratio of liver over plasma
Description: 113 was dissolved in 4% NaHCO3 in saline for IV administration. The detailed procedure of dosing solution preparation was presented in Appendix I.
15 animals were placed on the study. The animals in IV arm were free access to food and water. For PO dose group, the animals were fasted overnight prior to dosing and the food was resumed 4 hours postdose.
One extra animal was used for blank liver, brain and plasma generation (5 mL per animal). The resulting blank liver, brain and plasma were then applied to the development of bioanalytical method and sample bioanalysis for the entire study.
The IV injection was conducted via foot dorsal vein. PO via oral gavage.
Blood collection: The animal is restrained manually. Approximately 200 μL of blood/time point is collected into sodium heparin tube via cardiac puncture for terminal bleeding (anesthetized under carbon dioxide). Blood sample will be put on ice and centrifuged to obtain plasma sample (2000 g, 5 min under 4° C.) within 10 minutes.
Liver collection: The animal will be euthanized with carbon dioxide inhalation. Open abdominal cavity with scissor to expose internal organs. Hold the carcass in an upright position and allow the organs to fall forward. Cut the connective tissues and remove the organs. Then the organs are rinsed with cold saline, dried on filtrate paper, placed into a screw-top tube and weighed, snap frozen by placing into dry-ice immediately.
Brain collection: Make a mid-line incision in the animals scalp and retract the skin. Using small bone cutters and rongeurs, remove the skull overlying the brain. Remove the brain using a spatula and rinse with cold saline, dried on filtrate paper, placed into a screw-top tube and weighed, snap frozen by placing into dry-ice immediately. Brain tissue will be homogenized for 2 min with 3 volumes (v/w) of homogenizing solution (PBS pH 7.4) right before analysis. Plasma, brain and liver samples were stored at approximately −80° C. until analysis. The backup samples will be discarded after three weeks after in-life completion unless requested. The unused dosing solutions will be discarded within three weeks after completion of the study.
The PK parameters were determined by non-compartmental model of non-compartmental analysis tool, Pharsight Phoenix WinNonlin® 6.2 software.
Concentration data within 80%-120% of LLOQ was considered within normal instrumental variation and presented in the results.
Time points were automatic selected by “best fit” model for terminal half life estimation as the first option. Manual selection was applied when “best fit” could not well define the terminal phase.

[1] = male, Sprague-Dawley (SD), iv, 6 hr
[2] = male, SD, iv, Liver-plasma concentration ratio of 113
[3] = male, SD, iv, liver concentration of 113
[4] = male, SD, iv, plasma concentration of 113
[5] = male, SD, po, plasma concentration of 113
[6] = male, Sprague-Dawley, iv, Brain-plasma concentration ratio of 113
[7] = male, Sprague-Dawley, iv, brain concentration of 113

## CN1CCN(C(=O)C2C3CCC(O3)C2C(=O)O)CC1 (stereo not drawn) [Compound 100, 3-(4-methylpiperazine-1-carbonyl)-7-oxa-bicyclo[2,2,1]-heptane-2-carboxylic acid]
male, Sprague-Dawley (SD), iv
  AUC(0-inf): 2830 ng·h/mL
  AUC(0-t): 2800 ng·h/mL
  AUC(0-t) of 100: 703 ng·h/mL
  AUC(0-∞) of 100: 707 ng·h/mL
  Tmax: 15 min
  Tmax of 100: 15 min
[1]
  Liver-plasma concentration ratio of 100: 7.32
  plasma concentration of 100: 3.25 ng/mL
male, Sprague-Dawley, iv
  AUC(0-last) of 100 in plasma: 703 ng·h/mL
  AUC(0-t) ratio of liver over plasma, 100: 399
  AUC(0-∞) of 100 in plasma: 707 ng·h/mL
  Cmax of 100 in liver: 1895 ng/g
  Cmax of 100 in plasma: 554 ng/mL
  Tmax of 100 in liver: 15 min
  Tmax of 100 in plasma: 15 min
male, Sprague-Dawley, iv, 6 h
  plasma concentration of 100: 3.25 ng/mL
iv
  AUC(0-last) of 100 in liver: 2804 ng·h/g
  AUC(0-∞) of 100 in liver: 2834 ng·h/g
  AUClast-liver/AUClast-plasma of 100: 399

## CN1CCN(C(=O)C2C(C(=O)OCC(Cl)(Cl)Cl)[C@H]3CC[C@@H]2O3)CC1 (stereo partly drawn) [Compound 113]
male, SD, iv, 1 h
  Liver-plasma concentration ratio of 113: 1.18
male, SD, iv, AUClast of 113 in plasma
  AUC(0-t): 155 ng·h/mL
[2]
  Kp at 0.25 h: 0.321
  Kp at 1 h: 1.35
[3]
  concentration at 0.25 h: 55.5 ng/g
  concentration at 1 h: 14.6 ng/g
[4]
  concentration at 0.25 h: 173 ng/mL
  concentration at 1 h: 10.8 ng/mL
male, SD, po, 2 h
  plasma concentration of 113: 2.15 ng/mL
[5]
  concentration at 0.25 h: 18.3 ng/mL
  concentration at 1 h: 4.61 ng/mL
  concentration at 2 h: 2.15 ng/mL
male, Sprague-Dawley (SD), iv
  Cmax of 113: 90.4 ng/mL
  Tmax: 15 min
male, Sprague-Dawley (SD), iv, Cmax of 113
  Cmax: 46.2 ng/mL
male, Sprague-Dawley (SD), po
  F of 113: 10.1%
  Tmax: 15 min
male, Sprague-Dawley (SD), po, AUC(0-t) of 113
  AUC(0-t): 15.7 ng·h/mL
male, Sprague-Dawley (SD), po, Cmax of 113
  Cmax: 17.7 ng/mL
male, Sprague-Dawley
  bioavailability: 10.1%
male, Sprague-Dawley, iv
  Tmax: 15 min
male, Sprague-Dawley, iv, 113
  Kp: 18.1
male, Sprague-Dawley, iv, 113 (printed in the brain paragraph)
  Kp: 30.6
[6]
  Kp at 0.25 h: 0.498
  Kp at 1 h: 0.537
male, Sprague-Dawley, iv, Cmax of 113 in brain
  Cmax: 90.4 ng/g
male, Sprague-Dawley, iv, Cmax of 113 in liver
  Cmax: 46.2 ng/g
male, Sprague-Dawley, iv, Liver-plasma concentration ratio of 113
  Kp at 1 h: 1.27
[7]
  concentration at 0.25 h: 86.2 ng/g
  concentration at 1 h: 5.8 ng/g
male, Sprague-Dawley, po
  Tmax: 15 min
male, Sprague-Dawley, po, AUClast of 113 in plasma
  AUC(0-t): 15.7 ng·h/mL
male, Sprague-Dawley, po, Cmax of 113 in plasma
  Cmax: 17.7 ng/mL
iv
  AUC(0-last) of 113 in brain: 47.5 ng·h/g
  AUC(0-last) of 113 in liver: 28.1 ng·h/g
